Several values for one entry are separate records, joined by “and”; a condition that tells them apart may be missing. Identical values can stand only once. Inconclusive results and toxic doses are left out. Rule as the data show it: active = T/C of 150% or more; inactive = T/C below 125%.
Tested on: L1210 leukemia ip in BDF1 mice, survival T/C
Experiment: NCI In Vivo Anticancer Drug Screen. Data for tumor model L1210 Leukemia (intraperitoneal) in B6D2F1 (BDF1) mice
Conditions: endpoint: mean survival time, higher = longer survival
In short: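 Tumor was transplanted into mice, which were then dosed with test compound or vehicle alone. Survival was recorded for each group, and the treated figure was expressed relative to the control figure.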

[1] = dose: 50.0 mg/kg/injection, schedule: Q01DX001 (ip), vehicle: saline
[2] = dose: 50.0 mg/kg/injection, schedule: Q01DX009 (ip), vehicle: saline
[3] = dose: 100.0 mg/kg/injection, schedule: Q01DX001 (ip), vehicle: saline
[4] = dose: 100.0 mg/kg/injection, schedule: Q01DX009 (ip), vehicle: saline
[5] = dose: 100.0 mg/kg/injection, schedule: Q04DX003 (ip), vehicle: saline
[6] = dose: 200.0 mg/kg/injection, schedule: Q01DX001 (ip), vehicle: saline
[7] = dose: 200.0 mg/kg/injection, schedule: Q01DX009 (ip), vehicle: saline
[8] = dose: 12.5 mg/kg/injection, schedule: Q04DX002 (ip), vehicle: Klucel (hydroxypropylcellulose) (HPC)
[9] = dose: 25.0 mg/kg/injection, schedule: Q04DX002 (ip), vehicle: Klucel (hydroxypropylcellulose) (HPC)
[10] = dose: 100.0 mg/kg/injection, schedule: Q01DX001 (ip), vehicle: carboxymethylcellulose (CMC)
[11] = dose: 200.0 mg/kg/injection, schedule: Q01DX001 (ip), vehicle: carboxymethylcellulose (CMC)
[12] = dose: 400.0 mg/kg/injection, schedule: Q01DX001 (ip), vehicle: carboxymethylcellulose (CMC)

Measured: T/C

C[n+]1ccccc1C=O
inactive: [1] 100 % of control | [2] 102 % of control and 103 % of control | dose: 50.0 mg/kg/injection, schedule: Q04DX003 (ip), vehicle: saline 98 % of control | [3] 100 % of control | [4] 104 % of control and 113 % of control | dose: 100.0 mg/kg/injection, schedule: Q04DX002 (ip), vehicle: saline 97 % of control and 105 % of control | [5] 88 % of control | [6] 103 % of control | [7] 102 % of control and 109 % of control | dose: 200.0 mg/kg/injection, schedule: Q04DX002 (ip), vehicle: saline 102 % of control and 105 % of control | dose: 200.0 mg/kg/injection, schedule: Q04DX003 (ip), vehicle: saline 107 % of control | dose: 400.0 mg/kg/injection, schedule: Q04DX002 (ip), vehicle: saline 101 % of control

CCOC(=N)Cc1ccccc1
inactive: [8] 100 % of control | [9] 103 % of control | dose: 50.0 mg/kg/injection, schedule: Q04DX002 (ip), vehicle: Klucel (hydroxypropylcellulose) (HPC) 106 % of control | dose: 100.0 mg/kg/injection, schedule: Q04DX002 (ip), vehicle: Klucel (hydroxypropylcellulose) (HPC) 110 % of control

c1ccc2c(c1)c(N1CCOCC1)nn1nnnc21
inactive: dose: 37.5 mg/kg/injection, schedule: Q04DX003 (ip), vehicle: saline 101 % of control | dose: 75.0 mg/kg/injection, schedule: Q04DX003 (ip), vehicle: saline 98 % of control | dose: 150.0 mg/kg/injection, schedule: Q04DX003 (ip), vehicle: saline 98 % of control

CCCCCc1ccc(/C(C)=N/NC(=O)c2ccc[n+](C)c2)cc1
inactive: dose: 6.25 mg/kg/injection, schedule: Q04DX003 (ip), vehicle: saline 101 % of control | dose: 12.5 mg/kg/injection, schedule: Q04DX003 (ip), vehicle: saline 95 % of control | dose: 25.0 mg/kg/injection, schedule: Q04DX003 (ip), vehicle: saline with Tween-80 98 % of control | dose: 25.0 mg/kg/injection, schedule: Q04DX003 (ip), vehicle: saline 95 % of control

O=C1OC(c2ccccc2)=N/C1=C\c1ccc2c(c1)OCO2
inactive: [10] 95 % of control | [11] 98 % of control

CCOC(=O)/C=C(/CC(=O)OCC)Nc1ccc(C)cc1
inactive: [3] 89 % of control | [6] 99 % of control | dose: 400.0 mg/kg/injection, schedule: Q01DX001 (ip), vehicle: saline 97 % of control

Oc1ccc(Nc2cc(/C=C/c3ccc(Cl)cc3)nc(/C=C/c3ccc(Cl)cc3)n2)cc1CN1CCCC1
inactive: [1] 89 % of control | dose: 50.0 mg/kg/injection, schedule: Q04DX003 (ip), vehicle: Klucel (hydroxypropylcellulose) (HPC) 104 % of control | [3] 93 % of control | dose: 100.0 mg/kg/injection, schedule: Q04DX003 (ip), vehicle: Klucel (hydroxypropylcellulose) (HPC) 95 % of control | [6] 91 % of control | dose: 200.0 mg/kg/injection, schedule: Q04DX003 (ip), vehicle: Klucel (hydroxypropylcellulose) (HPC) 98 % of control

O=C(O)c1cc(=O)n(CCCn2c(=O)cc(C(=O)O)[nH]c2=O)c(=O)[nH]1
inactive: dose: 100.0 mg/kg/injection, schedule: Q04DX002 (ip), vehicle: saline with Tween-80 93 % of control | dose: 200.0 mg/kg/injection, schedule: Q04DX002 (ip), vehicle: saline with Tween-80 101 % of control | dose: 400.0 mg/kg/injection, schedule: Q04DX002 (ip), vehicle: saline with Tween-80 89 % of control

O=C1C=C(N2CC2)c2ccccc2C1=O
inactive: dose: 2.5 mg/kg/injection, schedule: Q01DX009 (ip), vehicle: Klucel (hydroxypropylcellulose) (HPC) 101 % of control | dose: 2.5 mg/kg/injection, schedule: Q04DX003 (ip), vehicle: Klucel (hydroxypropylcellulose) (HPC) 104 % of control | dose: 5.0 mg/kg/injection, schedule: Q01DX009 (ip), vehicle: Klucel (hydroxypropylcellulose) (HPC) 96 % of control | dose: 5.0 mg/kg/injection, schedule: Q04DX003 (ip), vehicle: Klucel (hydroxypropylcellulose) (HPC) 104 % of control | dose: 10.0 mg/kg/injection, schedule: Q01DX009 (ip), vehicle: Klucel (hydroxypropylcellulose) (HPC) 100 % of control | dose: 10.0 mg/kg/injection, schedule: Q04DX003 (ip), vehicle: Klucel (hydroxypropylcellulose) (HPC) 102 % of control | dose: 20.0 mg/kg/injection, schedule: Q01DX001 (ip), vehicle: Klucel (hydroxypropylcellulose) (HPC) 105 % of control | dose: 20.0 mg/kg/injection, schedule: Q01DX009 (ip), vehicle: Klucel (hydroxypropylcellulose) (HPC) 104 % of control | dose: 20.0 mg/kg/injection, schedule: Q04DX003 (ip), vehicle: Klucel (hydroxypropylcellulose) (HPC) 109 % of control

O=S(=O)(O)c1ccc2c(O)cc(S(=O)(=O)O)cc2c1
inactive: [4] 106 % of control | [5] 95 % of control | [7] 112 % of control | dose: 400.0 mg/kg/injection, schedule: Q01DX009 (ip), vehicle: saline 103 % of control | dose: 400.0 mg/kg/injection, schedule: Q04DX003 (ip), vehicle: saline 100 % of control

O=C(c1cccs1)c1c(C(F)(F)F)oc2c(c1=O)C=CC2
inactive: [10] 100 % of control | [11] 87 % of control | [12] 89 % of control

COc1ccc(COC(=O)Oc2ccc(Cl)cc2)cc1OC
inactive: dose: 100.0 mg/kg/injection, schedule: Q04DX003 (ip), vehicle: saline with Tween-80 96 % of control | dose: 200.0 mg/kg/injection, schedule: Q04DX003 (ip), vehicle: saline with Tween-80 96 % of control | dose: 400.0 mg/kg/injection, schedule: Q04DX003 (ip), vehicle: saline with Tween-80 101 % of control

CCCC[P+](CCCC)(CCCC)CCCC
inactive: dose: 5.0 mg/kg/injection, schedule: Q01DX001 (ip), vehicle: saline 102 % of control | dose: 6.25 mg/kg/injection, schedule: Q04DX002 (ip), vehicle: Klucel (hydroxypropylcellulose) (HPC) 89 % of control | dose: 10.0 mg/kg/injection, schedule: Q01DX001 (ip), vehicle: saline 123 % of control | [8] 103 % of control | dose: 20.0 mg/kg/injection, schedule: Q01DX001 (ip), vehicle: saline 104 % of control | [9] 95 % of control and 104 % of control

CN1C(=O)CC2(CCN(CCCC(=O)c3ccc(F)cc3)CC2)C1=O
inactive: dose: 3.12 mg/kg/injection, schedule: Q01DX009 (ip), vehicle: saline 103 % of control and 108 % of control | dose: 6.25 mg/kg/injection, schedule: Q01DX009 (ip), vehicle: Klucel (hydroxypropylcellulose) (HPC) 100 % of control | dose: 6.25 mg/kg/injection, schedule: Q01DX009 (ip), vehicle: saline 100 % of control and 101 % of control and 108 % of control | dose: 12.5 mg/kg/injection, schedule: Q01DX009 (ip), vehicle: Klucel (hydroxypropylcellulose) (HPC) 95 % of control | dose: 12.5 mg/kg/injection, schedule: Q01DX009 (ip), vehicle: saline 106 % of control and 112 % of control and 115 % of control | dose: 25.0 mg/kg/injection, schedule: Q01DX009 (ip), vehicle: Klucel (hydroxypropylcellulose) (HPC) 101 % of control | dose: 25.0 mg/kg/injection, schedule: Q01DX009 (ip), vehicle: saline 110 % of control | dose: 25.0 mg/kg/injection, schedule: Q04DX003 (ip), vehicle: alcohol 108 % of control | dose: 50.0 mg/kg/injection, schedule: Q01DX009 (ip), vehicle: Klucel (hydroxypropylcellulose) (HPC) 110 % of control | [2] 120 % of control and 124 % of control | dose: 50.0 mg/kg/injection, schedule: Q04DX003 (ip), vehicle: alcohol 106 % of control | dose: 100.0 mg/kg/injection, schedule: Q04DX003 (ip), vehicle: alcohol 106 % of control

CCCCC(C)(O)CCC (stereo unspecified)
inactive: dose: 50.0 mg/kg/injection, schedule: Q01DX001 (ip), vehicle: carboxymethylcellulose (CMC) 104 % of control | [10] 101 % of control | [11] 98 % of control | [12] 89 % of control

Cc1c(Cl)cccc1NC(=O)CCl
inactive: dose: 100.0 mg/kg/injection, schedule: Q01DX009 (ip), vehicle: saline with Tween-80 97 % of control | dose: 200.0 mg/kg/injection, schedule: Q01DX009 (ip), vehicle: saline with Tween-80 103 % of control

Source: PubChem BioAssay AID248 (DTP/NCI, 2004)
